Measured values taken from patent publication US12516055B2, “Protein kinase inhibitors and uses thereof for the treatment of diseases and conditions” (University of Houston System, priority 2019, dated 2026).
Read-outs that look alike come from different tables or passages of the source. Marks after values point to notes of the source that are not given here.

Assays:
[1] = test system: LPS/IDN-treated murine RAW264.7 macrophages; experiment: Protection from necroptosis in LPS/IDN-treated RAW264.7 macrophages (CellTiter-Glo); assay type: cell-based
Method: (§2) IC50/LD50 values were determined for inhibition of recombinant RIPK3, inhibition of necroptosis in LPS/IDN-treated murine RAW264.7 macrophages and TNF/IDN-treated human Hela cells expressing RIPK3, RIPK3 binding by the inhibitors in live cells (NanoBRET assay), and induction of RIPK3-dependent apoptosis (i.e., on-target toxicity). Assays were performed using ADPGlo (kinase assay), CellTiter-Glo (viability), and NanoBRET (target engagement) assays.
(§3) After incubation with drugs, 15 μL of CellTiter-Glo reagent is added to the wells and incubated for 10 min Luminescence signals are determined using appropriate luminescence plate-reader (typical integration time 0.3 sec).

[2] = test system: Hela-RIPK3 cells; details: Mandal et al. 2014, one cell under both toxicity columns; cited from earlier work
[3] = test system: RIPK3 and MLKL phosphorylation; experiment: RIPK3 and MLKL phosphorylation in RAW264.7 macrophages (Western blot, FIG. 31); assay type: cell-based; details: LPS 10 ng/ml + IDN6556 20 μM
Method: Necroptosis was induced by the combination of LPS (10 ng/ml) and pan-caspase inhibitor IDN6556 (20 μM). Note that LPS is a TLR4 ligand that, like TNF, can activate RIPK3 (and necroptosis) in the presence of a caspase inhibitor. The asterisk indicates a non-specific band sometimes see in pMLKL immunoblots. Samples are subjected to SDS-PAGE gele electrophoresis and Western blotting using RIPK3, phospho-Thr231/Ser232-RIPK3, MLKL and phospho-Ser345-MLKL antibodies (Abcam).

[4] = test system: TNF/IDN-treated human Hela cells expressing RIPK3; experiment: Protection from necroptosis in TNF/IDN-treated Hela-RIPK3 cells (CellTiter-Glo); assay type: cell-based
Method: as §2, §3

[5] = test system: NOD2 cellular signaling; experiment: NOD2 signaling assay in HEK-Blue cells (NFkB-SEAP reporter); assay type: cell-based; details: Homo sapiens, L18-MDP stimulated, read-out: EC50 HEK Blue (μM) RIPK2
Method: HEK-Blue cells expressing human NOD2 and NFkB-SAEP reporter (Invivogen) are seeded into 96 well clear plates at 7.5×10^3 cells per well in 100 μL of DMEM media supplemented with 10% FBS and 1% antibiotic-antimycotic mix. Cells are allowed to attach for 48 h in 5% CO2 tissue culture incubator at 37° C. On the morning of the experiment, media in the wells is replaced with 100 μL of HEK-Blue detection media (Invivogen). Cells are treated with the inhibitors, diluted in DMSO (0.5 μL per well) for […] in 5% CO2 tissue culture incubator at 37° C. After that, cells are stimulated by the addition of 1 ng/well L18-MDP (Invivogen). Cells are incubated in 5% CO2 tissue culture incubator at 37° C. for 8 h and absorbance, corresponding to the SEAP in the media, is determined in Wallac3V plate reader (Perkin Elmer). Inhibition, %=(1−((sample signal-unstimulated and DMSO treated cells)/(L18−MDP stimulated and DMSO treated cells−unstimulated and DMSO treated cells)))*100.
(§1) Prepared compounds were evaluated for their ability to inhibit RIPK2 and ALK2 enzyme activities and NOD2 cellular signaling using the methods described above.

[6] = target: T1, human ALK2 (Homo sapiens, UniProt Q04771); experiment: ALK2 enzyme assay (33P-casein); assay type: biochemical; details: 10 μM ATP
T1 sequence (Q04771 21-509): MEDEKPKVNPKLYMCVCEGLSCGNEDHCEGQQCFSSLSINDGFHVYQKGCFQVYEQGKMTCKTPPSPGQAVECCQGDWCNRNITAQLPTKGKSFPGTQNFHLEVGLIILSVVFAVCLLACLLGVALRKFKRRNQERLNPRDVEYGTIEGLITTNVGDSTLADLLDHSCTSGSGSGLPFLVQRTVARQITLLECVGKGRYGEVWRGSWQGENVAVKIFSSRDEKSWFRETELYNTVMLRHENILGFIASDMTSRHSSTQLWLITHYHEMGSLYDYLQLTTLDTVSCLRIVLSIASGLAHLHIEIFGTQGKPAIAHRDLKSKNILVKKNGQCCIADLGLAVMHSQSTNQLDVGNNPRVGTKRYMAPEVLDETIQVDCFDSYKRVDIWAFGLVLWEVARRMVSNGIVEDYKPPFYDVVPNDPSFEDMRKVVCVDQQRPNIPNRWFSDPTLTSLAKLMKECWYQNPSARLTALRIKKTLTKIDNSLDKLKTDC
Method: Enzyme inhibitory activity was evaluated in a standard kinase enzyme assay by incubating human ALK2 with the protein substrate casein (1 mg/mL) and γ-^33ATP (10 μM) in the presence of various concentrations of test compounds (10 nM 100 μM). After 30 min the amount of ^33P-casein was determined.
as §1

[7] = target: T2, RIPK3 (Homo sapiens, UniProt Q9Y572); experiment: Inhibition of recombinant RIPK3 (ADP-Glo kinase assay); assay type: biochemical; details: recombinant RIPK3, ADPGlo; read-out: Inhibition of RIPK3, RIPK3 protein IC50
T2 sequence (Q9Y572 whole entry, species assumed): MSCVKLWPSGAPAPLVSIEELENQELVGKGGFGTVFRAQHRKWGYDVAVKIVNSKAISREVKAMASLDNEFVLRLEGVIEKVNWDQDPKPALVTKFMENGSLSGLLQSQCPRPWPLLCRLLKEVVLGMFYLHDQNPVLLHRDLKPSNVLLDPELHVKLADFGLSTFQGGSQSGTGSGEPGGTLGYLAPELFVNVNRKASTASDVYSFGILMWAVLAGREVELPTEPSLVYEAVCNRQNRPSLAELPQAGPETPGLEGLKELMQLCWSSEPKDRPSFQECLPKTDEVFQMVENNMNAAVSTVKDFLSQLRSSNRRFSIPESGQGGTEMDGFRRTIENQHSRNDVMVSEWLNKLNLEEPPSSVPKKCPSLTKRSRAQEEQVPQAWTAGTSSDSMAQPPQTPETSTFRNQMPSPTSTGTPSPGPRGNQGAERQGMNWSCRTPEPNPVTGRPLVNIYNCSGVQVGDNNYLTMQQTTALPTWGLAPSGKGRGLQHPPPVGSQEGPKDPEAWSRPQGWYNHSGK
Method: as §2
(§4) For ADP-Glo assays, recombinant RIPK3 protein (20 ng per reaction) is diluted in the reaction buffer consisting of 50 mM HEPES, pH 7.5, 50 mM NaCl, 30 mM MgCl2, 1 mM DTT, 0.05% bovine serum albumin (BSA), 0.02% CHAPS. Diluted protein is added to low volume white 384 well plates (2 μL/well). […] Reactions are initiated by the addition of 2 μL of 100 μM ATP in the reaction buffer. Plates are sealed with plastic coverslips and incubated at room temperature for 4 h. Reactions are stopped by the addition of 5 μL of ADP-Glo reagent (Promega) and ADP generation reaction is performed for 40 mM at room temperature Luminescence signal is generated by the addition of 10 μL of Kinase detection reagent (Promega) for 30 mM at room temperature Luminescence signals are determined using appropriate luminescence plate-reader (typical integration time 0.3-1 sec). To calculate percent inhibition, average background signal is subtracted from test well and maximal signal wells. Inhibition, %=(1−(test signal/maximal signal))*100. The percent inhibition at a specified concentration is determined or IC50 values are calculated based on a dose range of inhibitor concentrations using non-linear regression in GraphPad Prism software. […] After incubation with drugs, 15 μL of CellTiter-Glo reagent is added to the wells and incubated for 10 min Luminescence signals are determined using appropriate luminescence plate-reader (typical integration time 0.3 sec). To calculate percent viability, Viability, %=(1−(test signal/maximal viability in the untreated wells))*100.

[8] = test system: RAW264.7 cells
Method: as §2, §4

[9] = target: T2, RIPK3; experiment: RIPK3 binding in live HEK cells (NanoBRET target engagement); set-up: expressed in transfected cells; host or cells: HEK cells
Method: as §2

[10] = test system: Hela-RIPK3 cells
Method: as §2
For ADP-Glo assays, recombinant RIPK3 protein (20 ng per reaction) is diluted in the reaction buffer consisting of 50 mM HEPES, pH 7.5, 50 mM NaCl, 30 mM MgCl2, 1 mM DTT, 0.05% bovine serum albumin (BSA), 0.02% CHAPS. Diluted protein is added to low volume white 384 well plates (2 μL/well). […] Reactions are stopped by the addition of 5 μL of ADP-Glo reagent (Promega) and ADP generation reaction is performed for 40 mM at room temperature Luminescence signal is generated by the addition of 10 μL of Kinase detection reagent (Promega) for 30 mM at room temperature Luminescence signals are determined using appropriate luminescence plate-reader (typical integration time 0.3-1 sec). […] The percent inhibition at a specified concentration is determined or IC50 values are calculated based on a dose range of inhibitor concentrations using non-linear regression in GraphPad Prism software. […]

[11] = Mus musculus, LPS/IDN-treated RAW264.7 cells, read-out: Protection from necroptosis, RAW264.7 cells IC50

Structure (SMILES) | IC50 [7] [nM] | Toxicity, RAW264.7 cells LD50 [8] [µM] | IC50 [9] [nM] | also measured
CC(C)S(=O)(=O)c1ccc2nccc(Nc3ccc4scnc4c3)c2c1 [GSK′872, reference compound] | – | – | – | IC50 ([1]; LPS/IDN-treated RAW264.7 cells, read-out: Protection from necroptosis, RAW264.7 cells IC50): 1290 nM; Toxicity LD50 (published value) [2]: ~10* μM; Block of RIPK3 and MLKL phosphorylation [3]: block RIPK3 and MLKL phosphorylation; IC50 [4]: 3210 nM
Cn1c(=O)c(-c2ccccc2Cl)cc2cnc(Nc3cccc(N4CCS(=O)(=O)CC4)c3)cc21 [UH15-28, 3-(2-chlorophenyl)-7-((3-(1,1-dioxidothiomorpholino)phenyl)amino)-1-methyl-1,6-naphthyridin-2(1H)-one] | – | – | – | EC50 [5]: 0.07 µM
CN1CCN(c2cccc(Nc3cc4c(cn3)cc(-c3ccccc3Cl)c(=O)n4C)c2)CC1 [UH15-37, 3-(2-chlorophenyl)-1-methyl-7-((3-(4-methylpiperazin-1-yl)phenyl)amino)-1,6-naphthyridin-2(1H)-one] | – | – | – | EC50 [5]: 0.05 µM; IC50 [6]: 32300 nM
CCN(CC)CCOc1ccc(Nc2ncc3cc(-c4ccccc4)c(=O)n(CC)c3n2)cc1 [compound 4] | 300 | 5.2 | – | IC50 ([1]; Mus musculus, RAW264.7, read-out: Protection from necroptosis, RAW264.7 cells IC50): 180 nM
CCN(CC)CCOc1ccc(Nc2ncc3cc(-c4c(Cl)cccc4Cl)c(=O)n(CCOC)c3n2)cc1 [compound 6] | 20 | – | 20 | –
CCN(CC)CCOc1ccc(Nc2ncc3cc(-c4c(Cl)cccc4Cl)c(=O)n(CC(C)C)c3n2)cc1 [compound 10] | 80 | – | – | –
Cc1ccc(-c2cc3cnc(Nc4cccc(S(C)(=O)=O)c4)nc3n(C)c2=O)c(Cl)c1 [compound 20] | 280 | – | 950 | –
CN1CCN(c2cccc(Nc3cc4c(cn3)cc(-c3ccccc3Cl)c(=O)n4C)c2)CC1 [compound 37] | 50 | >10 | 80 | IC50 [1, 11]: 250 nM; Toxicity, Hela-RIPK3 cells LD50 [10]: >10 µM; IC50 ([4]; Homo sapiens): 60 nM
CN1CCN(c2cccc(Nc3cc4c(cn3)cc(-c3cccc(O)c3)c(=O)n4C)c2)CC1 [compound 38] | 10 | >10 | 20 | IC50 [1, 11]: 20 nM
